“Also recorded” adds a separate entry of the source.
Tests used:
[1] = Stability study: change in purity after 10 days storage under forced degradation conditions; format: physicochemical; details: for Purity, 25° C. + 92.5% RH (Day 10): stored at 25° C. and 92.5% RH for 10 days; for Purity (Day 10): stored for 10 days
Procedure: Samples of the amorphous and crystalline (Form I) compound of formula (I) were stored under different conditions: at 40° C. for 10 days; […]; at 25° C. and 92.5% RH (relative humidity) for 10 days; at 60° C. and 75% RH for 10 days; in light for 10 days; and at room temperature for 10 days.

[2] = among the pyrazolopyrimidine ester prodrugs of CN 202111131059.0; cited from earlier work

For C=CC(=O)N1CCC[C@@H](n2nc(-c3ccc(Oc4ccccc4)cc3)c3c(NC(=O)OCCCC)ncnc32)C1 [Amorphous, 1-[(3R)-3-[4-(butoxycarbonyl)-amino-3-(4-phenoxyphenyl)-1H-pyrazolo[3,4-d]pyrimidin-1-yl]-1-piperidinyl]-2-propen-1-one], the “Stability in general (in words)” value ([1]; amorphous product, heat and moisture) was “poor stability”, the “Degradation observed (in words)” value ([1]; storage 10 days at 40° C.) was “Significant degradation” and the “Degradation observed (in words)” value ([1]; storage 10 days at 40° C., listed as amorphous sample) was “Noticeable degradation”. The “Degradation observed (in words)” value ([1]; storage 10 days at 60° C. and 75% RH) was “almost complete degradation”, the “Purity, 25° C. + 92.5% RH (Day 10)” value [1] was 98.00% and the “Purity (Day 10)” value [1] was 0%.

For C=CC(=O)N1CCC[C@@H](n2nc(-c3ccc(Oc4ccccc4)cc3)c3c(NC(=O)OCCCC)ncnc32)C1 [Form I, 1-[(3R)-3-[4-(butoxycarbonyl)-amino-3-(4-phenoxyphenyl)-1H-pyrazolo[3,4-d]pyrimidin-1-yl]-1-piperidinyl]-2-propen-1-one], the “Stability (in words)” value ([1]; 10 days of storage at room temperature and in light) was “highly stable; also recorded: very stable”, the “Degree of degradation compared with the amorphous form” value ([1]; several forced degradation conditions) was “lower degrees of degradation than the amorphous compound; also recorded: lower degree of degradation than the amorphous form” and the “Purity, 25° C. + 92.5% RH (Day 10)” value [1] was 98.63%. The “Purity (Day 10)” value [1] was 2.19%.

For C=CC(=O)N1CCC[C@@H](n2nc(-c3ccc(Oc4ccccc4)cc3)c3c(NC(=O)OCCCC)ncnc32)C1 [formula (I), 1-[(3R)-3-[4-(butoxycarbonyl)-amino-3-(4-phenoxyphenyl)-1H-pyrazolo[3,4-d]pyrimidin-1-yl]-1-piperidinyl]-2-propen-1-one], the “Rate of hydrolysis in blood” value [2] is given as “hydrolyzed most rapidly”.

From US20260055112A1, “CRYSTALLINE FORM OF PYRAZOLOPYRIMIDINE ESTER COMPOUND AND METHODS OF PREPARING THE SAME” (Shanghai Maius Pharmaceutical Co. Ltd., priority 2022, published 2026)
